Earlier results as cited in US20240115666A1, “COMPOSITIONS AND METHODS FOR REDUCING GAMMA-GLUTAMYLTRANSFERASE LEVELS” (Lile Method Research, LLC, priority 2022, published 2024).

- half-life in the blood: seconds to minutes
SMILES: N[C@@H](CCC(=O)N[C@@H](CS)C(=O)NCC(=O)O)C(=O)O [glutathione, L-γ-glutamyl-L-cysteinylglycine]
